The source of these data is patent publication EP1382597A2, “Steroid receptor modulator compounds and methods” (LIGAND PHARMACEUTICALS, INC., priority 1994, dated 1996).

The target of assay [1] is T1, human progesterone receptor A form (PR-A) (Homo sapiens, UniProt P06401).
T1 sequence (P06401 1-933): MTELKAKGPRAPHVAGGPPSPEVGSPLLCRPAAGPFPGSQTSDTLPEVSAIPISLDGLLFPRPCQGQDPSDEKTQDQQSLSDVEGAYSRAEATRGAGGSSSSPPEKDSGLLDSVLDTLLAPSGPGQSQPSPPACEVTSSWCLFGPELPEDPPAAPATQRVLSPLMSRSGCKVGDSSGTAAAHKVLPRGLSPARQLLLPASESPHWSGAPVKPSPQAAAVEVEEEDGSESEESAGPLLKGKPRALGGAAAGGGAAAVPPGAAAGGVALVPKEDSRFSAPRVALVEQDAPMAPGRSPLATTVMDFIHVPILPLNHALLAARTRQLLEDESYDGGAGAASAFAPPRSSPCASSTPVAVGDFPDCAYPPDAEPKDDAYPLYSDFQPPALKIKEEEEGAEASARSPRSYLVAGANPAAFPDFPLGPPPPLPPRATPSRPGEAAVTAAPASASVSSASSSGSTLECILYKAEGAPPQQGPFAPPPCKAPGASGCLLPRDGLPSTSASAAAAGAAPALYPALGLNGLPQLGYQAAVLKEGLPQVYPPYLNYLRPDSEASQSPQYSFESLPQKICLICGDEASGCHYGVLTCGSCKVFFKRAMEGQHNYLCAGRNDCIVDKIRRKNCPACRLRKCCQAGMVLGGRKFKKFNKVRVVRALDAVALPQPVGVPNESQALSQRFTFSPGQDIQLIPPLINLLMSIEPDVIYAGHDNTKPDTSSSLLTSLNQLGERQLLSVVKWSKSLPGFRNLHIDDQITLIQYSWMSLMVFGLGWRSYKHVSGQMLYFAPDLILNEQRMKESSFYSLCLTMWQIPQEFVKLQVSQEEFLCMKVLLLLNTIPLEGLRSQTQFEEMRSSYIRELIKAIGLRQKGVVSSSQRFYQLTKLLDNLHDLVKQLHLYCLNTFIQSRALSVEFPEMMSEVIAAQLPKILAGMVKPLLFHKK
As to the kind of experiment: PR binding assay.

The target in assay [2] is T2, human PR-B (Homo sapiens, UniProt P06401).
T2 construct: expressed in transfected cells; host or cells: CV-1 cells (African green monkey kidney fibroblasts), transient transfection
T2 sequence (P06401 1-933): T1 sequence (P06401 1-933)
As to the kind of experiment: Co-transfection assay, PR antagonist activity.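 For all read-outs here: monkey kidney fibroblasts co-transfected with receptor expression plasmid and hormone-responsive luciferase reporter, antagonism read as reduced luciferase signal.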 In kind it is cell-based. The following applies: for Emax: CV-1, read-out: PR Antagonist CV-1 Cells Efficacy (%).

Assay [3] concerns the target T2, human PR-B. The assay can be described thus: Co-transfection assay, PR agonist activity.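 For all read-outs here: CV-1 cells (African green monkey kidney) co-transfected with receptor plasmid and hormone-responsive firefly luciferase reporter, agonism read as compound-dependent rise in luciferase signal.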 In kind it is cell-based. Particulars: for Emax: CV-1, read-out: PR Agonist CV-1 Cells Efficacy (%); for PR Agonist CV-1 Cells Efficacy (%): percent maximal response relative to reference agonist progesterone.
For assay [4], the target named is T3, AR (Homo sapiens, UniProt P10275).
T3 construct: expressed in transfected cells; host or cells: CV-1 cells, transient transfection
T3 sequence (P10275 whole entry): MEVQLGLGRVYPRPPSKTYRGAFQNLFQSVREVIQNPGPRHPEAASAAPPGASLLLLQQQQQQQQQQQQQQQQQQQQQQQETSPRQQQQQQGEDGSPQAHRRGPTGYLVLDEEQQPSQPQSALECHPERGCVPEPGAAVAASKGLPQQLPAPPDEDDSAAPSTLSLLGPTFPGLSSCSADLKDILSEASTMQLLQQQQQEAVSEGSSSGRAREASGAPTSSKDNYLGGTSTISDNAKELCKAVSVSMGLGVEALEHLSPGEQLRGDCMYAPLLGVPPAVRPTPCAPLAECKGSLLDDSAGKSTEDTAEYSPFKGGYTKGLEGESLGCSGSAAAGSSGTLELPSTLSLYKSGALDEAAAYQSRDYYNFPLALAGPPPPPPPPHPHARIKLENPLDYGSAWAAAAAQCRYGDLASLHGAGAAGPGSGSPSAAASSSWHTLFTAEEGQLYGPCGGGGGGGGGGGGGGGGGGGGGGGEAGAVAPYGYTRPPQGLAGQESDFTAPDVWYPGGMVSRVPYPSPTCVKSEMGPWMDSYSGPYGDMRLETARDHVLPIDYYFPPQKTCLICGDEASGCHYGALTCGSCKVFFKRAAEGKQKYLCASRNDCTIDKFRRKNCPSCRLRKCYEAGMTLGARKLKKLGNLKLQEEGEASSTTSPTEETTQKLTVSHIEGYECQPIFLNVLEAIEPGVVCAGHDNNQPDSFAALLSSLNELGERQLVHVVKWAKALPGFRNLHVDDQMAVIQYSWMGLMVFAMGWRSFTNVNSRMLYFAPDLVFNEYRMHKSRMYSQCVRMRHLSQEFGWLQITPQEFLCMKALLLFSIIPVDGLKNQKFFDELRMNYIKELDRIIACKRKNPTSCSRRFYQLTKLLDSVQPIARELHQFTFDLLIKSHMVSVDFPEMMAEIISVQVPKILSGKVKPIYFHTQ
The assay can be described thus: Co-transfection assay, AR agonist activity. It counts as cell-based. The following applies: CV-1 cells.

Assay [5] relates to human AR. The assay can be described thus: AR whole cell binding assay (COS-1 cells). Particulars: whole COS-1 cells, competition with 1 nM 3H-DHT, three hours at 37°C.
The target in assay [6] is T3, AR. As to the kind of experiment: Co-transfection assay, AR antagonist activity. It counts as cell-based.
Assay [7] has as its system PR. As to the kind of experiment: Uterine wet weight assay (PR agonist effectiveness). It counts as in vivo, Sprague-Dawely rats. From the text:
J. Obstet. […] R.I. Dorfman, Academic Press, New York, New York, pp101-130 (1969), the disclosures of which are herein incorporated by reference. Four to five week old, ovariectomized, Sprague-Dawely rats (Harlan-Sprague-Dawely, Indianapolis, IN) were obtained 1 week after surgery and allowed to acclimate for an additional week after shipment.

Assay [8] deals with T4, MR (Homo sapiens, UniProt P08235).
T4 construct: expressed in transfected cells; host or cells: CV-1 cells, transient transfection
T4 sequence (P08235 1-984): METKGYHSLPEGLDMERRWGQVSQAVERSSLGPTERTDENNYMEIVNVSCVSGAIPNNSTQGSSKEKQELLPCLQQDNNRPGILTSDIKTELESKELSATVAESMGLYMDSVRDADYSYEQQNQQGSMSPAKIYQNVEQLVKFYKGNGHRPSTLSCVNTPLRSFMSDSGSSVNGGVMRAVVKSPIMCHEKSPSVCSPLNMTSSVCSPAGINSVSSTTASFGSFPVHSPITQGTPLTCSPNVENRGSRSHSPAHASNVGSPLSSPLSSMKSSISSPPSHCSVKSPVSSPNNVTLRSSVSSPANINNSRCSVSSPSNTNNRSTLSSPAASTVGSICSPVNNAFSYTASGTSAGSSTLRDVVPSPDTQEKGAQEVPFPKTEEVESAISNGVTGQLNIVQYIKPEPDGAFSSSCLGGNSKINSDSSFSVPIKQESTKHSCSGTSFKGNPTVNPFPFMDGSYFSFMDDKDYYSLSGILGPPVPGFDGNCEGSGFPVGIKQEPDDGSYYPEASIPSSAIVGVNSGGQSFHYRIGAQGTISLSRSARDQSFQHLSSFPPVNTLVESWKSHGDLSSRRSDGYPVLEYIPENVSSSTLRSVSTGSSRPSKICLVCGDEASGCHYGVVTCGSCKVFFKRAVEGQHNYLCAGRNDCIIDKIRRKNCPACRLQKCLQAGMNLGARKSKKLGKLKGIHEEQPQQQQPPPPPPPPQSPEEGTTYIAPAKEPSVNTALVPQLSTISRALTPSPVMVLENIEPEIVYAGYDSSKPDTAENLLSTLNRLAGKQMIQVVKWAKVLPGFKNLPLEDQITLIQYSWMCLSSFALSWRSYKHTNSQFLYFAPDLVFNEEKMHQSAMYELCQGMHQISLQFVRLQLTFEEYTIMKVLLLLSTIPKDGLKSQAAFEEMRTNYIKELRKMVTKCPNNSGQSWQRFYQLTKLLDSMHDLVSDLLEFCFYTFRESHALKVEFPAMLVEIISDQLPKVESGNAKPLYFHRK
As to the kind of experiment: Co-transfection assay, MR antagonist activity. It counts as cell-based.

Assay [9] concerns the target T5, GR (Homo sapiens, UniProt P04150).
T5 construct: expressed in transfected cells; host or cells: CV-1 cells, transient transfection
T5 sequence (P04150 1-777): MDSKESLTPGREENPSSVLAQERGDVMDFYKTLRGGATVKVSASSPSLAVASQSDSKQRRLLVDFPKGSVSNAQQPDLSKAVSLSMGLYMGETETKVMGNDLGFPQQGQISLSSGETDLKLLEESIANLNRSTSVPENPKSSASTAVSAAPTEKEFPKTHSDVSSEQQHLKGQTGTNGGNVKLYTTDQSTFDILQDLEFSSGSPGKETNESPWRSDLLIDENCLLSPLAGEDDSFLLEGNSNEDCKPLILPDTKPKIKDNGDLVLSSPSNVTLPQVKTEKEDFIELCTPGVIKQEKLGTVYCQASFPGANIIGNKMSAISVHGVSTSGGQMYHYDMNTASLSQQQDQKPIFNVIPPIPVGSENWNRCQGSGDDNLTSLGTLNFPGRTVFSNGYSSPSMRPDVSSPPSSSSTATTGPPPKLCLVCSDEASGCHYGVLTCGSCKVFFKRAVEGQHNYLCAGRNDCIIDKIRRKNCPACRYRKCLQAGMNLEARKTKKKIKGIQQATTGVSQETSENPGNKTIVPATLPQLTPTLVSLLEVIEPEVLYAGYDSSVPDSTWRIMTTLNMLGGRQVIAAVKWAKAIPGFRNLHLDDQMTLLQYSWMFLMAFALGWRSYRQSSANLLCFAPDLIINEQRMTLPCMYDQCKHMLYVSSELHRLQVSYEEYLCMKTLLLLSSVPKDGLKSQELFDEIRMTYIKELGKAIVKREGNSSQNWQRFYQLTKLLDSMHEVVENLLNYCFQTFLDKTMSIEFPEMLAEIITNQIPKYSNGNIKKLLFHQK
The assay can be described thus: Co-transfection assay, GR antagonist activity. It counts as cell-based.

In assay [10] the target is T6, ER (Homo sapiens, UniProt P03372).
T6 construct: expressed in transfected cells; host or cells: CV-1 cells, transient transfection, with MTV-ERE5-LUC reporter
T6 sequence (P03372 whole entry): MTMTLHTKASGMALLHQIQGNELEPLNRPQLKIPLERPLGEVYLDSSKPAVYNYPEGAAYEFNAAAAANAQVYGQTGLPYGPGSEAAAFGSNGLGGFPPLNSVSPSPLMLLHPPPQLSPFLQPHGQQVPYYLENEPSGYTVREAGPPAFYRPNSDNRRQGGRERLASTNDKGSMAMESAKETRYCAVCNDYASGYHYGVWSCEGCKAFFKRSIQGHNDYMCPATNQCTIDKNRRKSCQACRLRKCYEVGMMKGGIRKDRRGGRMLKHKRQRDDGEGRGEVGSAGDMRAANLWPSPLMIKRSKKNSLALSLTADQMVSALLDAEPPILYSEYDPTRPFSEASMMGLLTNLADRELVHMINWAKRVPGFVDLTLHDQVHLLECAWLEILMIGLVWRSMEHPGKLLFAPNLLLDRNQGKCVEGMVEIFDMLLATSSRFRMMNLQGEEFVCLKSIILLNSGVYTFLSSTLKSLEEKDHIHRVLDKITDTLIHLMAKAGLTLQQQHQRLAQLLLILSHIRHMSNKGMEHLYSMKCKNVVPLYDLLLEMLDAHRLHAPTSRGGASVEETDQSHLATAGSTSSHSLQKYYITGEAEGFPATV
The assay can be described thus: Co-transfection assay, ER agonist activity. In kind it is cell-based.

Assay [11] addresses T6, ER. The assay can be described thus: Co-transfection assay, ER antagonist activity. It counts as cell-based.
For assay [12], the system named is PR. As to the kind of experiment: Implantation assay (antiprogestin activity). It counts as in vivo, mice (ICR strain). As to the method: Mating was assumed to have taken place at 02.00 h, time 0.
Compound 150 was dissolved in sesame oil (50 mg/mL) and kept at room temperature before use. […] Control animals received an equivuivalent volume of the control vehicle, sesame oil, alone.
The animals were sacrificed, and autopsies were carried out at Day 8 of pregnancy, and numbers of implantation sites counted and recorded, and are shown in Table 7 below. Each group consisted of between 5 and 7 animals.

Where [13] appears, read: competition with [3H] progesterone, baculovirus extract, 4°C, 16 hours, read-out: PR Binding Ki.
The mark [14] stands for this setting: CV-1 cells, agonist potency = EC50, read-out: PR Agonist CV-1 Cells Potency.

Read-outs that look alike come from different tables or passages of the source.

The Ki is the dissociation constant of the complex between target and ligand, obtained from inhibition or displacement. Consider `C[C@H]1C(=O)C(C)(C)Nc2ccc3c(c21)O[C@H](c1ccccc1)c1ccccc1-3` (relative stereo) [Compound 391, (R/S-4l,6l)-1,2,3,4-Tetrahydro-2,2,4-trimethyl-6-phenyl-5H-isochromeno[3,4-f]-3-quinolinone], for which the Ki in [1] came out at 187 nM. Besides, in assay [2], the IC50 was 120 nM and the Emax turned out to be 65%. Further, in assay [3], the EC50 was above 10000 nM and the Emax was below 20%.
Turning to “8-Bromo-1,2-dihydro-2,2,4-trimethylindeno[1,2-g]quinoline [Compound 117]”, the Ki in [1] (setting [13]) is above 10000 nM. Also, in [3] (setting [14]), the EC50 was above 10000 nM. Also, in assay [3] (CV-1 cells), the “PR Agonist CV-1 Cells Efficacy (%)” value is “na (na = not active (i.e. efficacy of <20 and potency of >10,000))”.
With “8-(4-Chlorobenzoyl)-5-trifluoromethyl-7-pyridono[5,6-e]indoline [Compound 420]”, the EC50 in assay [4] (agonist potency = EC50) was 2100 nM. Moreover, the “AR Agonist CV-1 Cells Efficacy (%)” value in assay [4] (relative to reference agonist DHT) was 40%. The same molecule gave an inhibitory constant (Ki) in [5] of 346 nM. Also, the IC50 in [6] (CV-1 cells, antagonist potency = IC50, DHT at its EC50, read-out: AR Antagonist CV-1 Cells Potency) is 32 nM. Moreover, the “AR Antagonist CV-1 Cells Efficacy (%)” value in assay [6] (CV-1 cells, percent maximal inhibition, DHT at its EC50) is 80%.
For the molecule `CCCCC1Oc2ccc(F)cc2-c2ccc3c(c21)C(C)=CC(C)(C)N3` (racemic) [Compound 210, (R/S)-5-Butyl-9-fluoro-1,2-dihydro-2,2,4-trimethyl-5H-chromeno[3,4-f]quinoline], the “effect on uterine wet weight” value in assay [7] (co-administered with estrone, doses of 0.3 mg, 1.0 mg, and 3.0 mg/rat) is listed as “decreased by approximately half”.
As to “(R/S-4l,5l)-3-Benzenzylidene-5-(4-chlorophenyl)-1,2,3,4-tetrahydro-2,2,4-trimethyl-5H-chromeno[3,4-f]quinoline [Compound 401]”, in [1] (setting [13]), the Ki was found to be 150 nM. In addition, the IC50 in [2] (CV-1 cells, antagonist potency = IC50, progesterone at its EC50, read-out: PR Antagonist CV-1 Cells Potency) is above 10000 nM. Besides, the “PR Antagonist CV-1 Cells Efficacy (%)” value in assay [2] (CV-1 cells, percent maximal inhibition, progesterone at its EC50) was “na (na = not active (i.e. efficacy of <20 and potency of >10,000))”. Further, the EC50 in [3] (setting [14]) was 600 nM. Also, in assay [3] (CV-1 cells), the “PR Agonist CV-1 Cells Efficacy (%)” value was determined as 43%.
`CC1=CC(C)(C)Nc2ccc(-c3cccc(F)c3F)cc21` [Compound 152, 6-(2,3-Difluorophenyl)-1,2-dihydro-2,2,4-trimethylquinoline] registered a Ki in assay [1] of 53 nM. In addition, in assay [2], the IC50 came out at 130 nM and the Emax is 82%. In assay [3], the EC50 is above 10000 nM and the Emax was below 20%.
Consider `CC1=CC(C)(C)Nc2ccc3c(c21)C(c1ccc(Cl)cc1)Oc1ccccc1-3` (racemic) [Compound 163, (R/S)-5-(4-Chlorophenyl)-1,2-dihydro-2,2,4-trimethyl-5H-chromeno[3,4-f]quinoline], for which the IC50 in [8] was determined as 1450 nM; in assay [9], 1330 nM; in assay [11] it was 2150 nM. This molecule also displayed an EC50 in assay [10] above 10000 nM. Moreover, the Emax in assay [2] came out at 45%; in [3] it was 77%. The “Mean Uterine Wet Weight” value in assay [7] (3.0 mg/rat oral once a day for three days in the presence of estrone (10 µg/day, subcutaneous)) turned out to be 125 mg. The “effect on mean uterine wet weight” value in [7] (co-administered with estrone, dosage of 3 mg/rat) is “decreased by approximately half”.
On to `CC1=CC(C)(C)Nc2ccc(-c3cccc(C#N)c3)cc21` [Compound 150, 6-(3-Cyanophenyl)-1,2-dihydro-2,2,4-trimethylquinoline], for which the IC50 in [8] was 1900 nM; in assay [9], 2700 nM; in [11], above 10000 nM; in [6], 140 nM. In addition, the results for the Emax in assay [2] and in [3] were 91% and 24%, respectively. The “Percent Pregnancy Rate” value in [12] (5.0 mg/day oral, days 2 to 4 of pregnancy, mice) came to 0. Besides, the “effect on pregnancy rate with simultaneous PR agonist” value in [12] (simultaneous injection of R5020 (promegestone) at 1.0 mg per day) was “reversed to the control level”.
